Test results as given in US8071625B2, “Certain chemical entities, compositions, and methods” (Cytokinetics, Inc., priority 2006, dated 2011).

Each compound was assayed against T1, crosslinked smooth muscle actomyosin (chicken gizzard smooth muscle myosin subfragment-1 crosslinked to cardiac or skeletal actin) (Gallus gallus, UniProt P10587) (assay: Lead optimization pyruvate kinase/horseradish peroxidase/pyruvate oxidase-coupled ATPase assay (compound dose response)). Details: read-out: IC50 Arithmetic Mean.
T1 construct: chicken gizzard smooth muscle myosin subfragment-1; from tissue; host or cells: chicken gizzard
Type: biochemical
Experimental: Screening assays were performed using a pyruvate kinase and lactate dehydrogenase-coupled ATPase assay containing the following reagents: Potassium PIPES (50 mM), MgCl2 (3 mM), KCl (100 mM), ATP (0.15 mM), DTT (1 mM), BSA (0.1 mg/ml), NADH (0.5 mM), PEP (1.5 mM), pyruvate kinase (4 U/ml), lactate dehydrogenase (8 U/ml), and antifoam (50 ppm) (concentrations expressed are final assay concentrations). The pH was adjusted to 6.80 at 22° C. by addition of potassium hydroxide. Lead optimization assays were performed with a more sensitive pyruvate kinase/horseradish peroxidase/pyruvate oxidase-coupled ATPase assay containing the following reagents: Potassium PIPES (12 mM), MgCl2 (2 mM), KCl (100 mM), ATP (0.15 mM), BSA (0.05 mg/ml), potassium phosphate (2 mM), amplex red (0.1 mM), PEP (0.1 mM), pyruvate kinase (4 U/ml), horseradish peroxidase (0.5 U/ml), pyruvate oxidase (0.5 U/ml), and antifoam (50 ppm) (concentrations expressed are final assay concentrations). The pH was adjusted to 7.00 at 22° C. by addition of potassium hydroxide.
The protein components specific to this assay are chicken gizzard smooth muscle myosin subfragment-1 that has been chemically crosslinked to either cardiac or skeletal actin using an excess of 1-Ethyl-3-[3-dimethylaminopropyl]carbodiimide hydrochloride and N-hydroxysuccinimide. The exact concentration of the crosslinked smooth muscle myosin in the assay is determined empirically, by titration to achieve a desired rate of ATP hydrolysis. The concentration varies between protein preparations due to variations in the fraction of active molecules in each preparation.
Compound dose response assays are performed by first preparing a dilution series of test compound, each with an assay mixture containing potassium PIPES, MgCl2, KCl, ATP, BSA, potassium phosphate, amplex red, PEP, crosslinked smooth muscle actomyosin (subfragment-1), antifoam, and water. The assay is started by adding an equal volume of solution containing potassium Pipes, MgCl2, KCl, BSA, potassium phosphate, pyruvate kinase, horseradish peroxidase, pyruvate oxidase, antifoam, and water. ATP hydrolysis is monitored by measuring the fluorescence of amplex red (excitation at 480 nm, emission at 615 nm). The resulting dose response curve is fit by the 4 parameter equation y=Bottom+((Top-Bottom)/(1+((IC50/X)^Hill))). The IC50 is defined as the concentration at which ATPase activity is midway between the top and bottom of the dose response curve.

SMILES	IC50 [nM]
CCc1ccc(NC(=O)OCC2(C(=O)NCc3ccccc3)CCN(C(=O)CN)CC2)cc1 [(1-(2-aminoacetyl)-4-{[N-(4-ethylphenyl)carbamoyloxy]methyl}(4-piperidyl))-N-benzylcarboxamide]	8110
CCc1ccc(NC(=O)OCC2(C(=O)NCc3ccccc3CO)CCN(C(=O)CN)CC2)cc1 [(1-(2-aminoacetyl)-4-{[N-(4-ethylphenyl)carbamoyloxy]methyl}(4-piperidyl))-N-{[2-(hydroxymethyl)phenyl]methyl}carboxamide]	949
NCC(=O)N1CCC(COC(=O)Nc2ccc(F)cc2)(C(=O)NCc2ccccc2Cl)CC1 [(1-(2-aminoacetyl)-4-{[N-(4-fluorophenyl)carbamoyloxy]methyl}(4-piperidyl))-N-[(2-chlorophenyl)methyl]carboxamide]	14600
Cc1ccc(NC(=O)OCC2(C(=O)NCc3ccccc3Cl)CCN(C(=O)CN)CC2)cc1 [(1-(2-aminoacetyl)-4-{[N-(4-methylphenyl)carbamoyloxy]methyl}(4-piperidyl))-N-[(2-chlorophenyl)methyl]carboxamide]	191
NCC(=O)N1CCC(COC(=O)Nc2ccc(-c3ccccc3)cc2)(C(=O)NCc2ccccc2Cl)CC1 [(1-(2-aminoacetyl)-4-{[N-(4-phenylphenyl)carbamoyloxy]methyl}(4-piperidyl))-N-[(2-chlorophenyl)methyl]carboxamide]	277
CCc1ccc(NC(=O)OCC2(C(=O)NCc3ccccc3Cl)CCN(CCN)CC2)cc1 [(1-(2-aminoethyl)-4-{[N-(4-ethylphenyl)carbamoyloxy]methyl}(4-piperidyl))-N-[(2-chlorophenyl)methyl]carboxamide]	1160
CCc1ccc(NC(=O)OCC2(C(=O)NCc3ccccc3Cl)CCN(C(=O)C(O)CN)CC2)cc1 (stereo not shown) [(1-(3-amino-2-hydroxypropanoyl)-4-{[N-(4-ethylphenyl)carbamoyloxy]methyl}(4-piperidyl))-N-[(2-chlorophenyl)methyl]carboxamide]	120
CCc1ccc(NC(=O)OCC2(C(=O)NCc3ccccc3Cl)CCN(C(=O)C(O)CCN)CC2)cc1 (stereo not shown) [(1-(4-amino-2-hydroxybutanoyl)-4-{[N-(4-ethylphenyl)carbamoyloxy]methyl}(4-piperidyl))-N-[(2-chlorophenyl)methyl]carboxamide]	187
CCc1ccc(NC(=O)OCC2(C(=O)NCc3ccccc3Cl)CCN(C(=O)CCCN)CC2)cc1 [(1-(4-aminobutanoyl)-4-{[N-(4-ethylphenyl)carbamoyloxy]methyl}(4-piperidyl))-N-[(2-chlorophenyl)methyl]carboxamide]	246
CCc1ccc(NC(=O)OCC2(C(=O)NCc3ccccc3Cl)CCN(C(=O)[C@H](N)CO)CC2)cc1 [(1-((2R)-2-amino-3-hydroxypropanoyl)-4-{[N-(4-ethylphenyl)carbamoyloxy]methyl}(4-piperidyl))-N-[(2-chlorophenyl)methyl]carboxamide]	164
CCc1ccc(NC(=O)OCC2(C(=O)NCc3ccccc3Cl)CCN(C(=O)[C@@H](C)N)CC2)cc1 [(1-((2R)-2-aminopropanoyl)-4-{[N-(4-ethylphenyl)carbamoyloxy]methyl}(4-piperidyl))-N-[(2-chlorophenyl)methyl]carboxamide]	255
CCc1ccc(NC(=O)OCC2(C(=O)NCc3ccccc3Cl)CCCN(C(=O)[C@@H](N)CO)C2)cc1 (stereo partly drawn) [(1-((2S)-2-amino-3-hydroxypropanoyl)-3-{[N-(4-ethylphenyl)carbamoyloxy]methyl}(3-piperidyl))-N-[(2-chlorophenyl)methyl]carboxamide]	1480
CCc1ccc(NC(=O)OCC2(C(=O)NCc3ccccc3Cl)CCN(C(=O)[C@@H](N)CO)CC2)cc1 [(1-((2S)-2-amino-3-hydroxypropanoyl)-4-{[N-(4-ethylphenyl)carbamoyloxy]methyl}(4-piperidyl))-N-[(2-chlorophenyl)methyl]carboxamide]	125
CCc1ccc(NC(=O)OCC2(C(=O)NCc3ccccc3Cl)CCN(C(=O)[C@H](C)N)CC2)cc1 [(1-((2S)-2-aminopropanoyl)-4-{[N-(4-ethylphenyl)carbamoyloxy]methyl}(4-piperidyl))-N-[(2-chlorophenyl)methyl]carboxamide]	724
CCc1ccc(NC(=O)OCC2(C(=O)NCc3ccccc3Cl)CCN(C(=O)C3CCN3)CC2)cc1 (stereo not shown) [(1-(azetidin-2-ylcarbonyl)-4-{[N-(4-ethylphenyl)carbamoyloxy]methyl}(4-piperidyl))-N-[(2-chlorophenyl)methyl]carboxamide]	221
CCc1ccc(NC(=O)OCC2(C(=O)NCc3ccccc3Cl)CCN(S(=O)(=O)CCN)CC2)cc1 [(1-[(2-aminoethyl)sulfonyl]-4-{[N-(4-ethylphenyl)carbamoyloxy]methyl}(4-piperidyl))-N-[(2-chlorophenyl)methyl]carboxamide]	274
CCc1ccc(NC(=O)OCC2(C(=O)NCc3ccccc3Cl)CCN(C(C)=O)CC2)cc1 [(1-acetyl-4-{[N-(4-ethylphenyl)carbamoyloxy]methyl}(4-piperidyl))-N-[(2-chlorophenyl)methyl]carboxamide]	418
CCc1ccc(NC(=O)OCC2(C(=O)NCc3ccccc3C#N)CCN(C(=O)CNC(=O)OC(C)(C)C)CC2)cc1 [(1-{2-[(tert-butoxy)carbonylamino]acetyl}-4-{[N-(4-ethylphenyl)carbamoyloxy]methyl}(4-piperidyl))-N-[(2-cyanophenyl)methyl]carboxamide]	7690
CCc1ccc(NC(=O)OCC2(C(=O)NCc3ccccc3OC)CCN(C(=O)CNC(=O)OC(C)(C)C)CC2)cc1 [(1-{2-[(tert-butoxy)carbonylamino]acetyl}-4-{[N-(4-ethylphenyl)carbamoyloxy]methyl}(4-piperidyl))-N-[(2-methoxyphenyl)methyl]carboxamide]	11300
CCc1ccc(NC(=O)NC[C@@H]2CCCN2C(=O)OCc2ccccc2Cl)cc1 [(2-chlorophenyl)methyl (2S)-2-({[(4-ethylphenyl)amino]carbonylamino}methyl)pyrrolidinecarboxylate]	3530
CCc1ccc(NC(=O)OCCOC(=O)NCc2ccccc2Cl)cc1 [(2-{N-[(2-chlorophenyl)methyl]carbamoyloxy}ethoxy)-N-(4-ethylphenyl)carboxamide]	3690
CCc1ccc(NC(=O)OCC2CN(C(=O)CN)CCN2C(=O)NCc2ccccc2Cl)cc1 (stereo not shown) [(4-(2-aminoacetyl)-2-{[N-(4-ethylphenyl)carbamoyloxy]methyl}piperazinyl)-N-[(2-chlorophenyl)methyl]carboxamide]	2380
CCc1ccc(NC(=O)N2CCN(C(=O)CN)C(C(=O)NCc3ccccc3Cl)C2)cc1 (stereo not shown) [(4-(2-aminoacetyl)-3-{N-[(2-chlorophenyl)methyl]carbamoyl}piperazinyl)-N-(4-ethylphenyl)carboxamide]	15200
Cc1ccc(NC(=O)OCC2(C(=O)NCc3ccccc3Cl)CCOCC2)c(C)c1 [(4-{[N-(2,4-dimethylphenyl)carbamoyloxy]methyl}(2H-3,4,5,6-tetrahydropyran-4-yl))-N-[(2-chlorophenyl)methyl]carboxamide]	1260
O=C(Nc1ccccc1Cl)OCC1(C(=O)NCc2ccccc2Cl)CCOCC1 [(4-{[N-(2-chlorophenyl)carbamoyloxy]methyl}(2H-3,4,5,6-tetrahydropyran-4-yl))-N-[(2-chlorophenyl)methyl]carboxamide]	17300
